Experimental data: patent US20240360151A1 (SANOFI, priority 2023, published 2024)
Structures can show the parent of a compound that is named as a salt.

Columns and labels:
NLRP3 inflammasome = molecular target: T1, NLRP3 inflammasome (Homo sapiens, UniProt Q96P20); assay: IL-1β secretion assay (NLRP3 IC50) in LPS-primed, nigericin-activated THP-1 cells, HTRF; format: cell-based; conditions: monocytic THP-1 cells; LPS 10 ng/mL 3 h priming, then compound + nigericin 10 μM 2 h; relative IC50, 10 concentrations, geometric mean
T1 construct: endogenous in cells; host or cells: THP-1 monocytic cells
T1 sequence (Q96P20 whole entry): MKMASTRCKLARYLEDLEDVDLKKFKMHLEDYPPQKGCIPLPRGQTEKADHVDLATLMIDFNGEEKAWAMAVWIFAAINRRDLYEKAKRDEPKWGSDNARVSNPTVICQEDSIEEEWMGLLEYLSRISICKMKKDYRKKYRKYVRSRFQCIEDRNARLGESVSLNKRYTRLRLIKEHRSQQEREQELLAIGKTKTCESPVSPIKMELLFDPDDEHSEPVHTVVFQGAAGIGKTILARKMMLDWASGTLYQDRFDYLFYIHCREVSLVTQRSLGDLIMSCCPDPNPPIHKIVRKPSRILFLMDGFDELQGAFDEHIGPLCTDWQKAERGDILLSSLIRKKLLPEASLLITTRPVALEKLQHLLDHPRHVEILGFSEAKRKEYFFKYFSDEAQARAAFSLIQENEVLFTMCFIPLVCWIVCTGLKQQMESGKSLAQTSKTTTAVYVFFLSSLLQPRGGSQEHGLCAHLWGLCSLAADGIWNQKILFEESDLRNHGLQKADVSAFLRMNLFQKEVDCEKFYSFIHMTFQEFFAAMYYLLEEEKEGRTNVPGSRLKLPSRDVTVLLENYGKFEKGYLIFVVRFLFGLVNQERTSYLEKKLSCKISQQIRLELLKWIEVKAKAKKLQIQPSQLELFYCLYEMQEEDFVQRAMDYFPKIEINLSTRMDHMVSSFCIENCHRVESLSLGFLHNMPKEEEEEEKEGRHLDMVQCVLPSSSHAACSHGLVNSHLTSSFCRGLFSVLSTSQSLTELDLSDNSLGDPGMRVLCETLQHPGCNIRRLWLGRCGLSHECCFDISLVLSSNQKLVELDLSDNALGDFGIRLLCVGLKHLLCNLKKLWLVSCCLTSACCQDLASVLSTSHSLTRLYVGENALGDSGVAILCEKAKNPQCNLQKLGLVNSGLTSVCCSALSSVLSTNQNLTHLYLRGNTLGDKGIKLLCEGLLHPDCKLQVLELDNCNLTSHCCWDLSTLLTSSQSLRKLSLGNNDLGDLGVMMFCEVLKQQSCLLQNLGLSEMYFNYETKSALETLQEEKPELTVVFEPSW
Method in brief: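 THP-1 cells primed with LPS 10 ng/mL for 3 h at 37° C., then compound (10-point 1:3 dilution, 0.1% DMSO) added with 10 μM nigericin for 2 h. Supernatant IL-1β measured by HTRF; relative IC50 from a 4-parameter logistic fit, reported as geometric mean.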

[1] = test system: NF-kB pathway (TNF-α secretion by THP-1 cells); assay: TNF-α secretion assay in LPS-stimulated THP-1 cells, Lumit immunoassay; format: cell-based, human; conditions: Homo sapiens, THP-1, 3 h, monocytic THP-1 cells, LPS 10 ng/mL, relative IC50, 10 concentrations, geometric mean
Method in brief: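 THP-1 monocytes in RPMI with 5% FBS were treated with compound, then stimulated with 10 ng/mL LPS for 3 h. Secreted TNF-α was measured in-plate by Lumit immunoassay. Relative IC50 came from 10-concentration curves fitted with a 4-parameter logistic model, reported as geometric mean.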

| IC50 (NLRP3 inflammasome) | IC50 [1] | Compound |
| --- | --- | --- |
| 0.5 nM | > 10 µM | Cc1cc(N2CC[C@H]3CCN(C)C[C@H]32)nnc1-c1ccc(C(F)(F)F)cc1O (single isomer, unassigned) [Example 367] |
| 2 nM | > 10 µM | Cc1cc(C)c(-c2ccc(N3CCO[C@@H]4CCN(C(C)C)C[C@@H]43)nn2)c(O)c1 [Example 433, 2-[6-[(4aS,8aR)-6-isopropyl-3,4a,5,7,8,8a-hexahydro-2H-pyrido[4,3-b][1,4]oxazin-4-yl]pyridazin-3-yl]-3,5-dimethyl-phenol] |
| 3 nM | > 10 µM | CN1CC[C@H]2OCCN(c3cc(C(F)F)c(-c4ccc(C(F)(F)F)cc4O)nn3)[C@H]2C1 [Example 298, 2-[6-[(4aS,8aR)-6-methyl-3,4a,5,7,8,8a-hexahydro-2H-pyrido[4,3-b][1,4]oxazin-4-yl]-4-(difluoromethyl)pyridazin-3-yl]-5-(trifluoromethyl)phenol] |
| 180 nM | > 10 µM | Cc1cc(C(F)(F)F)cc(O)c1-c1ccc(N2CCO[C@@H]3CCN(C)C[C@@H]32)nn1 (single isomer, unassigned) [Example 260] |
| 84 nM | > 10 µM | Cc1cc(C(F)(F)F)cc(O)c1-c1ccc(N2CCC(CO)CC2=O)nn1 (single isomer, unassigned) [Example 293] |
| 0.48 nM | > 10 µM | CCc1cccc(O)c1-c1ccc(N2CC[C@H]3CCN(C)C[C@H]32)nn1 (single isomer, unassigned) [Example 423] |
| 0.4 nM | > 10 µM | Cc1cc(N2CC[C@@H]3CCN(C)C[C@@H]32)nnc1-c1ccc(C(F)(F)F)cc1O (racemic) [Example 340, 2-[4-methyl-6-[rac-(3aS,7aR)-6-methyl-3,3a,4,5,7,7a-hexahydro-2H-pyrrolo[2,3-c]pyridin-1-yl]pyridazin-3-yl]-5-(trifluoromethyl)phenol] |
| 1 nM | > 10 µM | CCN1CC[C@H]2CCN(c3ccc(-c4c(C)cc(C(F)(F)F)cc4O)nn3)[C@H]2C1 (racemic) [Example 378, 2-[6-[rac-(3aS,7aR)-6-ethyl-3,3a,4,5,7,7a-hexahydro-2H-pyrrolo[2,3-c]pyridin-1-yl]pyridazin-3-yl]-3-methyl-5-(trifluoromethyl)phenol] |
| 178 nM | > 10 µM | Cc1cc(C)c(-c2ccc(N3CCO[C@H]4CCN(C5CCC5)C[C@H]43)nn2)c(O)c1 (single isomer, unassigned) [Example 10] |
| 13 nM | > 10 µM | CCc1cc(C(F)(F)F)cc(O)c1-c1ccc(N2CCO[C@H](CO)C2)nn1 [Example 418, 3-ethyl-2-[6-[(2S)-2-(hydroxymethyl)morpholin-4-yl]pyridazin-3-yl]-5-(trifluoromethyl)phenol] |
| 406 nM | > 10 µM | COC[C@@H]1CCCN1c1ccc(-c2c(C)cc(C(F)(F)F)cc2O)nn1 [Example 15, 2-[6-[(2S)-2-(methoxymethyl)pyrrolidin-1-yl]pyridazin-3-yl]-3-methyl-5-(trifluoromethyl)phenol] |
| 62 nM | > 10 µM | CC(=O)N1CC[C@H]2OCCN(c3cc(C)c(-c4ccc(C)cc4O)nn3)[C@H]2C1 [Example 431, 1-[(4aS,8aR)-4-[6-(2-hydroxy-4-methyl-phenyl)-5-methyl-pyridazin-3-yl]-3,4a,5,7,8,8a-hexahydro-2H-pyrido[4,3-b][1,4]oxazin-6-yl]ethanone] |
| 171 nM | > 10 µM | Cc1cc(C(F)(F)F)cc(O)c1-c1ccc(N2CCO[C@H]3CCN(C4CCC4)C[C@H]32)nn1 (single isomer, unassigned) [Example 12] |
| 249 nM | > 10 µM | CCN1CC[C@@H]2OCCN(c3ccc(-c4c(C)cc(C(F)(F)F)cc4O)nn3)[C@@H]2C1 (single isomer, unassigned) [Example 255] |
| 90 nM | > 10 µM | Cc1cc(C(F)(F)F)cc(O)c1-c1ccc(N2CCCC2=O)nn1 [Example 61, 1-[6-[2-hydroxy-6-methyl-4-(trifluoromethyl)phenyl]pyridazin-3-yl]pyrrolidin-2-one] |
| 14 nM | > 10 µM | Cc1cc(C)c(-c2ccc(N3CCO[C@H]4CCNC[C@H]43)nn2)c(O)c1 (racemic) [Example 195, 3,5-dimethyl-2-[6-[rac-(4aR,8aS)-2,3,4a,5,6,7,8,8a-octahydropyrido[4,3-b][1,4]oxazin-4-yl]pyridazin-3-yl]phenol] |
| 69 nM | > 10 µM | Cc1cc(C(F)(F)F)cc(O)c1-c1ccc(N2CC[C@H]3CNC[C@H]3C2=O)nn1 (racemic) [Example 264, rac-(3aS,7aR)-5-[6-[2-hydroxy-6-methyl-4-(trifluoromethyl)phenyl]pyridazin-3-yl]-2,3,3a,6,7,7a-hexahydro-1H-pyrrolo[3,4-c]pyridin-4-one, hydrochloride] |

The remaining lines, values behind:

| Compound | IC50 (NLRP3 inflammasome) | IC50 [1] |
| --- | --- | --- |
| Cc1cc(C)c(-c2ccc(N3CCc4ccc(O)cc43)nn2)c(O)c1 [Example 254, 1-[6-(2-hydroxy-4,6-dimethyl-phenyl)pyridazin-3-yl]indolin-6-ol] | 460 nM | 9.97 µM |
| Cc1ccc(-c2nnc(N3CCO[C@H](CO)C3)cc2C(F)(F)F)c(O)c1 [Example 155, 2-[6-[(2S)-2-(hydroxymethyl)morpholin-4-yl]-4-(trifluoromethyl)pyridazin-3-yl]-5-methyl-phenol] | 461 nM | > 10 µM |
| Oc1cc(Cl)cc(Cl)c1-c1ccc(N2CC3(COC3)C2)nn1 [Example 64, 3,5-dichloro-2-[6-(2-oxa-6-azaspiro[3.3]heptan-6-yl)pyridazin-3-yl]phenol] | 222 nM | > 10 µM |
| CN(C)C[C@H]1CCN(c2ccc(-c3c(O)cc(Cl)cc3Cl)nn2)C1 [Example 41, 3,5-dichloro-2-[6-[(3R)-3-[(dimethylamino)methyl]pyrrolidin-1-yl]pyridazin-3-yl]phenol] | 252 nM | > 10 µM |
| NC1(C2CCCN(c3ccc(-c4c(O)cc(Cl)cc4Cl)nn3)C2)CC1 (stereo not drawn) [Example 17, 2-[6-[3-(1-aminocyclopropyl)-1-piperidyl]pyridazin-3-yl]-3,5-dichloro-phenol] | 473 nM | > 10 µM |
| Cc1cc(C)c(-c2ccc(N3CCO[C@H](CF)C3)nn2)c(O)c1 [Example 219, 2-[6-[(2S)-2-(fluoromethyl)morpholin-4-yl]pyridazin-3-yl]-3,5-dimethyl-phenol] | 103 nM | > 10 µM |
| CC(=O)NC[C@@H]1CCCN(c2ccc(-c3c(O)cc(Cl)cc3Cl)nn2)C1 [Example 58, N-[[(3S)-1-[6-(2,4-dichloro-6-hydroxy-phenyl)pyridazin-3-yl]-3-piperidyl]methyl]acetamide] | 64 nM | > 10 µM |
| Cc1cc(C)c(-c2ccc(N3CCOC(CF)C3)nn2)c(O)c1 (stereo not drawn) [Example 174, 2-[6-[2-(fluoromethyl)morpholin-4-yl]pyridazin-3-yl]-3,5-dimethyl-phenol] | 170 nM | > 10 µM |
| NC[C@H]1CCCN(c2ccc(-c3c(O)cc(Cl)cc3Cl)nn2)C1 [Example 22, 2-[6-[(3R)-3-(aminomethyl)-1-piperidyl]pyridazin-3-yl]-3,5-dichloro-phenol] | 153 nM | > 10 µM |
| [2H]C([2H])(O)[C@@H]1CN(c2ccc(-c3c(C)cc(C)cc3O)nn2)CCO1 [Example 165, 2-[6-[(2S)-2-[dideuterio(hydroxy)methyl]morpholin-4-yl]pyridazin-3-yl]-3,5-dimethylphenol] | 42 nM | 5.62 µM |
| Cc1ccc(-c2nnc(N3CC[C@@H]4CCN(C)C[C@@H]43)cc2C)c(O)c1 (racemic) [Example 341, 5-methyl-2-[4-methyl-6-[rac-(3aS,7aR)-6-methyl-3,3a,4,5,7,7a-hexahydro-2H-pyrrolo[2,3-c]pyridin-1-yl]pyridazin-3-yl]phenol] | 1 nM | > 10 µM |
| Cc1cc(C)c(-c2ccc(N3C[C@H](CO)O[C@@H](CO)C3)nn2)c(O)c1 [Example 201, 2-[6-[(2R,6R)-2,6-bis(hydroxymethyl)morpholin-4-yl]pyridazin-3-yl]-3,5-dimethyl-phenol] | 76 nM | > 10 µM |
| OC[C@@H]1CN(c2ccc(-c3c(O)cccc3C(F)(F)F)nn2)CCO1 [Example 54, 2-[6-[(2S)-2-(hydroxymethyl)morpholin-4-yl]pyridazin-3-yl]-3-(trifluoromethyl) phenol] | 132 nM | > 10 µM |
| Cc1cc(C(F)(F)F)cc(O)c1-c1cc(C(F)F)c(N2CCO[C@H](CO)C2)nn1 [Example 194, 2-[5-(difluoromethyl)-6-[(2S)-2-(hydroxymethyl)morpholin-4-yl]pyridazin-3-yl]-3-methyl-5-(trifluoromethyl)phenol] | 4 nM | > 10 µM |
| Cc1cc(C2CC2)cc(O)c1-c1ccc(N2CCO[C@H](CO)C2)nn1 [Example 204, 5-cyclopropyl-2-[6-[(2S)-2-(hydroxymethyl)morpholin-4-yl]pyridazin-3-yl]-3-methyl-phenol] | 54 nM | > 10 µM |
| Cc1cc(C)c(-c2cc(CO)c(N3CCO[C@H](CO)C3)nn2)c(O)c1 [Example 187, 2-[5-(hydroxymethyl)-6-[(2S)-2-(hydroxymethyl)morpholin-4-yl]pyridazin-3-yl]-3,5-dimethyl-phenol] | 66 nM | > 10 µM |
